Laboratory results reported in paper PMC8079033, “Design, synthesis, anticancer evaluation, and molecular modelling studies of novel tolmetin derivatives as potential VEGFR-2 inhibitors and apoptosis inducers” (Journal of Enzyme Inhibition and Medicinal Chemistry, 2021).

Legend:
Assay in all cases: NCI 60-cell line one-dose antiproliferative screen (SRB)
Format in all cases: cell-based
786-0 = conditions: Homo sapiens, read-out: growth inhibition % (GI%)
Procedure, shortened: (§1)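 Compounds tested at a single 10 µM dose for 48 h at 37 °C after 24 h pre-incubation; cells TCA-fixed and stained with sulforhodamine B, absorbance at 515 nm. Percent growth calculated relative to no-compound control and time-zero cell count, reported as growth inhibition percentage.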

A498 = conditions: Homo sapiens, read-out: growth inhibition % (GI%)
Procedure, shortened: as §1

A549/ATCC = conditions: Homo sapiens, read-out: growth inhibition % (GI%)
Procedure, shortened: as §1

BT-5 = conditions: Homo sapiens, read-out: growth inhibition % (GI%)
Procedure, shortened: as §1

EKVX = conditions: Homo sapiens, read-out: growth inhibition % (GI%)
Procedure, shortened: as §1

HL-60 (TB) = conditions: Homo sapiens, read-out: growth inhibition % (GI%)
Procedure, shortened: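 Single dose 10 µM; 48 h exposure, 37 °C/5% CO2, after 24 h preincubation. TCA fix, SRB stain, A515. % growth vs untreated control and time-zero plates, reported as GI%.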

HOP-92 = conditions: Homo sapiens, read-out: growth inhibition % (GI%)
Procedure, shortened: as §1

IGROV1 = conditions: Homo sapiens, IGROV-1, read-out: growth inhibition % (GI%)
Procedure, shortened: as §1

K-562 = conditions: Homo sapiens, K562, read-out: growth inhibition % (GI%)
Procedure, shortened: as §1

LOX IMVI = conditions: Homo sapiens, read-out: growth inhibition % (GI%)
Procedure, shortened: as §1

MCF7 = conditions: Homo sapiens, read-out: growth inhibition % (GI%)
Procedure, shortened: as §1

MDA-MB-231/ATCC = conditions: Homo sapiens, read-out: growth inhibition % (GI%)
Procedure, shortened: as §1

MDA-MB-468 = conditions: Homo sapiens, read-out: growth inhibition % (GI%)
Procedure, shortened: as §1

MOLT-4 = conditions: Homo sapiens, read-out: growth inhibition % (GI%)
Procedure, shortened: as §1

NCI-H322M = conditions: Homo sapiens, read-out: growth inhibition % (GI%)
Procedure, shortened: as §1

NCI-H460 = conditions: Homo sapiens, read-out: growth inhibition % (GI%)
Procedure, shortened: as §1

NCI-H522 = conditions: Homo sapiens, read-out: growth inhibition % (GI%)
Procedure, shortened: as §1

NCI/ADR-RES = conditions: Homo sapiens, read-out: growth inhibition % (GI%)
Procedure, shortened: as §1

OVCAR-4 = conditions: Homo sapiens, read-out: growth inhibition % (GI%)
Procedure, shortened: as §1

OVCAR-5 = conditions: Homo sapiens, read-out: growth inhibition % (GI%)
Procedure, shortened: as §1

OVCAR-8 = conditions: Homo sapiens, read-out: growth inhibition % (GI%)
Procedure, shortened: as §1

PC-3 = conditions: Homo sapiens, read-out: growth inhibition % (GI%)
Procedure, shortened: as §1

RPMI-8226 = conditions: Homo sapiens, read-out: growth inhibition % (GI%)
Procedure, shortened: as §1

RXF 393 = conditions: Homo sapiens, read-out: growth inhibition % (GI%)
Procedure, shortened: as §1

SF-295 = conditions: Homo sapiens, read-out: growth inhibition % (GI%)
Procedure, shortened: as §1

SF-539 = conditions: Homo sapiens, read-out: growth inhibition % (GI%)
Procedure, shortened: as §1

SN 12 C = conditions: Homo sapiens, SN12C, read-out: growth inhibition % (GI%)
Procedure, shortened: as §1

SNB-19 = conditions: Homo sapiens, read-out: growth inhibition % (GI%)
Procedure, shortened: as §1

SNB-75 = conditions: Homo sapiens, read-out: growth inhibition % (GI%)
Procedure, shortened: as §1

SW-620 = conditions: Homo sapiens, read-out: growth inhibition % (GI%)
Procedure, shortened: as §1

T-47D = conditions: Homo sapiens, T47D, read-out: growth inhibition % (GI%)
Procedure, shortened: as §1

U251 = conditions: Homo sapiens, U-251, read-out: growth inhibition % (GI%)
Procedure, shortened: as §1

UACC-62 = conditions: Homo sapiens, read-out: growth inhibition % (GI%)
Procedure, shortened: as §1

SMILES: Cc1ccc(C(=O)c2ccc(CC(=O)NN=Cc3ccc(O)cc3O)n2C)cc1 [Compound 5c, N′-(2,4-Dihydroxybenzylidene)-2–(1-methyl-5–(4-methylbenzoyl)-1H-pyrrol-2-yl) acetohydrazide]
- inhibition at 10 µM (786-0): 56.6%
- inhibition at 10 µM (A498): 12.6%
- inhibition at 10 µM (A549/ATCC): 53.4%
- inhibition at 10 µM (BT-5): 49.2%
- inhibition at 10 µM (EKVX): 65.8%
- inhibition at 10 µM (HL-60 (TB)): 95.5%
- inhibition at 10 µM (HOP-92): 16.9%
- inhibition at 10 µM (IGROV1): 58.3%
- inhibition at 10 µM (K-562): 55.1%
- inhibition at 10 µM (LOX IMVI): 81.2%
- inhibition at 10 µM (MCF7): 60.8%
- inhibition at 10 µM (MDA-MB-231/ATCC): 48.6%
- inhibition at 10 µM (MDA-MB-468): 53.2%
- inhibition at 10 µM (MOLT-4): 87%
- inhibition at 10 µM (NCI-H322M): 62%
- inhibition at 10 µM (NCI-H460): 78.9%
- inhibition at 10 µM (NCI-H522): 44.5%
- inhibition at 10 µM (NCI/ADR-RES): 65.4%
- inhibition at 10 µM (OVCAR-4): 79.3%
- inhibition at 10 µM (OVCAR-5): 36.6%
- inhibition at 10 µM (OVCAR-8): 51.6%
- inhibition at 10 µM (PC-3): 38.9%
- inhibition at 10 µM (RPMI-8226): 51.6%
- inhibition at 10 µM (RXF 393): 50.3%
- inhibition at 10 µM (SF-295): 52.8%
- inhibition at 10 µM (SF-539): 55.6%
- inhibition at 10 µM (SN 12 C): 44.3%
- inhibition at 10 µM (SNB-19): 50.6%
- inhibition at 10 µM (SNB-75): 68.9%
- inhibition at 10 µM (SW-620): 57.8%
- inhibition at 10 µM (T-47D): 49.8%
- inhibition at 10 µM (U251): 62.4%
- inhibition at 10 µM (UACC-62): 70.2%
